{"source": "ChEMBL document CHEMBL1137545", "about": "“Antiproliferative activities of a library of hybrids between indanones and HDAC inhibitor SAHA and MS-275 analogues” (Bioorg Med Chem Lett, 2007)", "note": "Activity calls are given as the source filed them. The calls are words filed in the database; no cut-off is given here."}
{"system": "not listed separately", "assay": "Antiproliferative activity against H661 cells after 48 hrs", "type": "functional, cell-based", "conditions": "Homo sapiens, NCI-H661, 48 h", "units": {"IC50": "µM"}}
{"smiles": "CC(/C=C/C(=O)NO)=C\\[C@@H](C)C(=O)c1ccc(N(C)C)cc1", "note": "[TRICHOSTATIN]", "IC50": 0.085}
{"smiles": "CC1(CCCCC(=O)NO)Cc2ccccc2C1=O", "note": "(centres undefined)", "IC50": "> 25"}
{"smiles": "CC1(CCCCCCC(=O)NO)Cc2ccccc2C1=O", "note": "(centres undefined)", "IC50": 20}
{"system": "NCI-H661", "assay": "Antiproliferative activity against H661 cells at 25 uM after 48 hrs", "type": "functional, cell-based", "conditions": "Homo sapiens"}
{"smiles": "CC1(Cc2nc(C(=O)Nc3ccccc3N)cs2)Cc2ccccc2C1=O", "note": "(centres undefined)", "Activity": "inactive"}
{"smiles": "CC1(Cc2cccc(C(=O)Nc3ccccc3N)c2)Cc2ccccc2C1=O", "note": "(centres undefined)", "Activity": "inactive"}
{"smiles": "CN(C)c1ccc2c(c1)CC(C)(CCCCC(=O)NO)C2=O", "note": "(centres undefined)", "Activity": "inactive"}
{"smiles": "CC1(Cc2nc(C(=O)NO)cs2)Cc2ccccc2C1=O", "note": "(centres undefined)", "Activity": "inactive"}
{"smiles": "CC1(CCCCCC(=O)NO)Cc2ccccc2C1=O", "note": "(centres undefined)", "Activity": "inactive"}
{"smiles": "CC1(Cc2cccc(C(=O)NO)c2)Cc2ccccc2C1=O", "note": "(centres undefined)", "Activity": "inactive"}
